# Biological target: Tyrosine-protein phosphatase non-receptor type 9 (PTP-MEG2, Homo sapiens) (UniProt P43378)
# Assay: The assays were performed in 20 mM MOPS buffer, pH 7.2, containing 50 mM NaCl and 2 mM GSH. Compounds were dissolved in DMSO and diluted to various concentration gradients and further diluted for activity evaluations. Ten microliter of complex was mixed to 82 L enzyme solution for 30 min, followed by addition of 2 L of pNPP (0.1 M) substrate to initiat
# Conditions: not given
# Tyrosine-protein phosphatase non-receptor type 9 (PTP-MEG2, Homo sapiens), sequence (P43378 whole entry, looked up): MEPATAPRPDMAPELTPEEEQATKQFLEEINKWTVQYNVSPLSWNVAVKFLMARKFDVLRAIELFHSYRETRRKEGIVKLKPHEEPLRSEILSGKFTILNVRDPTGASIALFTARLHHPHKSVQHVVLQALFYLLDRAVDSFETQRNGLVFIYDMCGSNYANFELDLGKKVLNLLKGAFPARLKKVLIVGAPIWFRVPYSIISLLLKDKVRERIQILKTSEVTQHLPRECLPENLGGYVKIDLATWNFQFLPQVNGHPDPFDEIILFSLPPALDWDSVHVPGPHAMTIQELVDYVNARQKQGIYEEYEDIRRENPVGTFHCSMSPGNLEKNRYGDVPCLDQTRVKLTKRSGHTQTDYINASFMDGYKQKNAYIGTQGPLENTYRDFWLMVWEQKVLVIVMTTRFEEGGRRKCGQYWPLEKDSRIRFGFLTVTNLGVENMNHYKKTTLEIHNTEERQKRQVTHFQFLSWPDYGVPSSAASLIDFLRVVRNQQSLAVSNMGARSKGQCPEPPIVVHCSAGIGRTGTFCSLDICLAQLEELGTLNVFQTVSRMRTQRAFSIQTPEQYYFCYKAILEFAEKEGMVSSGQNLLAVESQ
row,Substance,IC50 [nM]
1,Bis(4-bromo-2-((phenylimino)methyl)phenolate)-oxovanadium(IV) (4),2900
2,Bis(4-chloro-2-((phenylimino)methyl)phenolate)-oxovanadium(IV) (3),3600
3,Bis(4-nitro-2-((phenylimino)methyl)phenolate)-oxovanadium(IV) (5),3200

# Biological target: Tyrosine-protein phosphatase non-receptor type 6 (Homo sapiens, UniProt P29350)
# Assay: PTP inhibition assay
# Conditions: pH 7.2
# Protocol: (§1) The assays were performed in 20 mM MOPS buffer, pH 7.2, containing 50 mM NaCl and 2 mM GSH. Compounds were dissolved in DMSO and diluted to various concentration gradients and further diluted for activity evaluations. Ten microliter of complex was mixed to 82 L enzyme solution for 30 min, followed by addition of 2 L of pNPP (0.1 M) substrate to initiate the reaction. After 30 min at RT, 6 L of 2 M NaOH was added to terminate the reaction. The absorbance was measured at 405 nm.
# Tyrosine-protein phosphatase non-receptor type 6, sequence (P29350 whole entry): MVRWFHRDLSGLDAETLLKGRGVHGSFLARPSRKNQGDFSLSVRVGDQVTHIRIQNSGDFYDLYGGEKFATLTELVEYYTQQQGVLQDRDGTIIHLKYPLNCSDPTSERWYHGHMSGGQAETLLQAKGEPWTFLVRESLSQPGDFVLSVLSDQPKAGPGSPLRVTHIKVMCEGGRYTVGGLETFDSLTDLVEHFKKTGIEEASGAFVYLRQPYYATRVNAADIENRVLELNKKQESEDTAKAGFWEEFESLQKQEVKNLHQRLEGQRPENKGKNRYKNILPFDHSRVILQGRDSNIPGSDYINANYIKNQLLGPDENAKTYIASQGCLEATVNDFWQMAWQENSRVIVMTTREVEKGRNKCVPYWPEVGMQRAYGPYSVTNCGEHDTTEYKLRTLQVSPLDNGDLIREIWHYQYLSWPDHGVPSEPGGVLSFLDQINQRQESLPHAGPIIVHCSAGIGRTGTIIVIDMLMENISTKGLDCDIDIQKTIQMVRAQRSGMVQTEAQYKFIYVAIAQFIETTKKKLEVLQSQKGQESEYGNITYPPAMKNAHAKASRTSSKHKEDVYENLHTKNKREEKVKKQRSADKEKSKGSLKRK
row,Substance,IC50 [nM]
1,Bis(4-bromo-2-((phenylimino)methyl)phenolate)-oxovanadium(IV) (4),6500
2,Bis(4-chloro-2-((phenylimino)methyl)phenolate)-oxovanadium(IV) (3),1000
3,Bis(4-nitro-2-((phenylimino)methyl)phenolate)-oxovanadium(IV) (5),2500

# Biological target: T1, Tyrosine-protein phosphatase non-receptor type 11 (Homo sapiens, UniProt Q06124)
# T1 sequence (Q06124 whole entry): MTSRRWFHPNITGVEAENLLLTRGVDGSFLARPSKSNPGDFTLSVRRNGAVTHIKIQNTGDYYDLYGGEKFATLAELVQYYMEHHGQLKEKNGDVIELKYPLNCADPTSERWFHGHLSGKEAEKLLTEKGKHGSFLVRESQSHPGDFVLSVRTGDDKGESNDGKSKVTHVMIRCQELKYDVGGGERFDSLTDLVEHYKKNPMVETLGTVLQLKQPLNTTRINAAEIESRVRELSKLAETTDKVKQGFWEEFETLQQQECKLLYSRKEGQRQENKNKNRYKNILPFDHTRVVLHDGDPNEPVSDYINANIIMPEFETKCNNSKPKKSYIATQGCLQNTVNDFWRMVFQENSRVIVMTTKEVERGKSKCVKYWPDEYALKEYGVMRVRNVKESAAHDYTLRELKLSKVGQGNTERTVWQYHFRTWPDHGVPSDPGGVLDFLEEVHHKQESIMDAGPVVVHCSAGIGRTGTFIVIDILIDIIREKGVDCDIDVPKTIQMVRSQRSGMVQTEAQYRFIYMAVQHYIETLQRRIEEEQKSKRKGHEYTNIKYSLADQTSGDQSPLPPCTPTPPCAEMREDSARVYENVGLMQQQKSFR
# Assay: PTP inhibition assay
# Conditions: pH 7.2
# Protocol: as §1
row,Substance,IC50 [nM]
1,Bis(4-bromo-2-((phenylimino)methyl)phenolate)-oxovanadium(IV) (4),35000
2,Bis(4-chloro-2-((phenylimino)methyl)phenolate)-oxovanadium(IV) (3),2300
3,Bis(4-nitro-2-((phenylimino)methyl)phenolate)-oxovanadium(IV) (5),2600

# Biological target: T2, Tyrosine-protein phosphatase non-receptor type 2 (Homo sapiens, UniProt P17706)
# T2 sequence (P17706 whole entry): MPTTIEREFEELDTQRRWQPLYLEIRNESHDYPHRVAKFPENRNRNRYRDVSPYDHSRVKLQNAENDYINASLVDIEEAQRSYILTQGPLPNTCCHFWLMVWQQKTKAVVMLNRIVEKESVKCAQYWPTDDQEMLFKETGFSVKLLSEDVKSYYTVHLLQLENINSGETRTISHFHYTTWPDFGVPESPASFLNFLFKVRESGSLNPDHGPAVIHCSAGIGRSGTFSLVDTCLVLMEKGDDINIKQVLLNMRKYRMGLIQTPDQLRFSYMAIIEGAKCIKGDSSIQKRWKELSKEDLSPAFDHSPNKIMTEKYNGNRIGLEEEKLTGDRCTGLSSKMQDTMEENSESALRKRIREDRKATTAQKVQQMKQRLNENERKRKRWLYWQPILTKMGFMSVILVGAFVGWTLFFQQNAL
# Assay: PTP inhibition assay
# Conditions: pH 7.2
# Protocol: as §1
row,Substance,IC50 [nM]
1,Bis(4-bromo-2-((phenylimino)methyl)phenolate)-oxovanadium(IV) (4),1900
2,Bis(4-chloro-2-((phenylimino)methyl)phenolate)-oxovanadium(IV) (3),8300
3,Bis(4-nitro-2-((phenylimino)methyl)phenolate)-oxovanadium(IV) (5),1400

# Biological target: T3, Tyrosine-protein phosphatase non-receptor type 1 (Homo sapiens, UniProt P18031)
# T3 sequence (P18031 whole entry): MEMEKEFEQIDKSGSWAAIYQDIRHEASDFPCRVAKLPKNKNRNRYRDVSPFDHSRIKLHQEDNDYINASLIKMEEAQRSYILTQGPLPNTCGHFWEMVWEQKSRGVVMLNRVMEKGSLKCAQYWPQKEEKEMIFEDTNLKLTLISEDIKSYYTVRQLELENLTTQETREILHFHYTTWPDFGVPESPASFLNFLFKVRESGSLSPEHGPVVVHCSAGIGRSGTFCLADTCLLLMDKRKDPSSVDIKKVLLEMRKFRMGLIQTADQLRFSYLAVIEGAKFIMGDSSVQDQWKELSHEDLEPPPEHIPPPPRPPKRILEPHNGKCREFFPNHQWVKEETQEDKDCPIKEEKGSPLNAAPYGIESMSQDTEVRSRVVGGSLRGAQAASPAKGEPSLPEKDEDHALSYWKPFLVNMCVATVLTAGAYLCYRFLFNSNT
# Assay: PTP inhibition assay
# Conditions: pH 7.2
# Protocol: as §1
row,Substance,IC50 [nM]
1,Bis(4-bromo-2-((phenylimino)methyl)phenolate)-oxovanadium(IV) (4),690
2,Bis(4-chloro-2-((phenylimino)methyl)phenolate)-oxovanadium(IV) (3),800
3,Bis(4-nitro-2-((phenylimino)methyl)phenolate)-oxovanadium(IV) (5),930

# Reference: BindingDB's records for doi:10.1039/c2dt30198a (Shanxi University, 2012)
